Reference: US9006450B2 (Boehringer Ingelheim International GmbH, priority 2010, dated 2015)

Each compound was assayed against T1, human ACC2 (Homo sapiens, UniProt O00763) (assay: ACC2 assay, spectrophotometric 384 well assay (NADH-linked, coupled lactate dehydrogenase/pyruvate kinase)). Conditions: ACC2 assay, hACC2 construct lacking 128 N-terminal amino acids, 25° C., 340 nm; read-out: IC50.
T1 construct: made in house; host or cells: insect cells (baculoviral expression system)
Format: biochemical
Experimental: Spectrophotometric 384 Well Assay
Malonyl CoA formation by acetyl CoA carboxylases is stoichometrically linked to the consumption of ATP. ACC2 activity is measured in a NADH-linked kinetic method measuring ADP generated during the ACC reaction using a coupled lactate dehydrogenase/pyruvate kinase reaction.
For biological testing, a human ACC2 construct which lacks the 128 amino acids at the N-terminus for increased solubility (nt 385-6966 in Genbank entry AJ575592) is cloned. The protein is then expressed in insect cells using a baculoviral expression system. Protein purification is performed by anion exchange.
All compounds are dissolved in dimethyl sulfoxide (DMSO) to a concentration of 10 mM.
Assay reactions are then carried out in 384-well plates, with hACC2 in an appropriate dilution and at final assay concentrations (f.c.) of 100 mM Tris (pH 7.5), 10 mM trisodium citrate, 25 mM KHCO3, 10 mM MgCl2, 0.5 mg/mL BSA, 3.75 mM reduced L-glutathione, 15 U/mL lactate dehydrogenase, 0.5 mM phosphoenolpyruvate, 15 U/mL pyruvate kinase, compounds at different concentrations at final DMSO concentrations of 1%.
The enzymatic reaction is then started by addition of a mixture of NADH, acetyl Coenzyme A (both 200 μM f.c.) and ATP (500 uM f.c.). The decrease of the optical density (slope S) is then determined at 25° C. at a wavelength of 340 nm over 15 minutes in a spectrophotometric reader.
Each assay microtiter plate contains wells with vehicle instead of compound as controls for the non-inhibited enzyme (100% CTL; ‘HIGH’) and wells without acetyl-CoA as controls for non-specific NADH degradation (0% CTL; ‘LOW’).
The slope S is used for calculation of % CTL=(S(compound)−S('LOW'))/(S('HIGH')−S('LOW'))*100. Compounds will give values between 100% CTL (no inhibition) and 0% CTL (complete inhibition).
For IC50 value determination, the sample slope in the presence of the test compound after subtraction of the low controls (S(compound)−S('LOW')) are used.
An IC50 value is derived from the compound slopes at different dosages after subtraction of the low controls (S(compound)−S('LOW')) by non-linear regression curve fitting (equation y=(A+((B−A)/(1+((C/x)^D))))).

T1 sequence (O00763 129-2458 limits assumed): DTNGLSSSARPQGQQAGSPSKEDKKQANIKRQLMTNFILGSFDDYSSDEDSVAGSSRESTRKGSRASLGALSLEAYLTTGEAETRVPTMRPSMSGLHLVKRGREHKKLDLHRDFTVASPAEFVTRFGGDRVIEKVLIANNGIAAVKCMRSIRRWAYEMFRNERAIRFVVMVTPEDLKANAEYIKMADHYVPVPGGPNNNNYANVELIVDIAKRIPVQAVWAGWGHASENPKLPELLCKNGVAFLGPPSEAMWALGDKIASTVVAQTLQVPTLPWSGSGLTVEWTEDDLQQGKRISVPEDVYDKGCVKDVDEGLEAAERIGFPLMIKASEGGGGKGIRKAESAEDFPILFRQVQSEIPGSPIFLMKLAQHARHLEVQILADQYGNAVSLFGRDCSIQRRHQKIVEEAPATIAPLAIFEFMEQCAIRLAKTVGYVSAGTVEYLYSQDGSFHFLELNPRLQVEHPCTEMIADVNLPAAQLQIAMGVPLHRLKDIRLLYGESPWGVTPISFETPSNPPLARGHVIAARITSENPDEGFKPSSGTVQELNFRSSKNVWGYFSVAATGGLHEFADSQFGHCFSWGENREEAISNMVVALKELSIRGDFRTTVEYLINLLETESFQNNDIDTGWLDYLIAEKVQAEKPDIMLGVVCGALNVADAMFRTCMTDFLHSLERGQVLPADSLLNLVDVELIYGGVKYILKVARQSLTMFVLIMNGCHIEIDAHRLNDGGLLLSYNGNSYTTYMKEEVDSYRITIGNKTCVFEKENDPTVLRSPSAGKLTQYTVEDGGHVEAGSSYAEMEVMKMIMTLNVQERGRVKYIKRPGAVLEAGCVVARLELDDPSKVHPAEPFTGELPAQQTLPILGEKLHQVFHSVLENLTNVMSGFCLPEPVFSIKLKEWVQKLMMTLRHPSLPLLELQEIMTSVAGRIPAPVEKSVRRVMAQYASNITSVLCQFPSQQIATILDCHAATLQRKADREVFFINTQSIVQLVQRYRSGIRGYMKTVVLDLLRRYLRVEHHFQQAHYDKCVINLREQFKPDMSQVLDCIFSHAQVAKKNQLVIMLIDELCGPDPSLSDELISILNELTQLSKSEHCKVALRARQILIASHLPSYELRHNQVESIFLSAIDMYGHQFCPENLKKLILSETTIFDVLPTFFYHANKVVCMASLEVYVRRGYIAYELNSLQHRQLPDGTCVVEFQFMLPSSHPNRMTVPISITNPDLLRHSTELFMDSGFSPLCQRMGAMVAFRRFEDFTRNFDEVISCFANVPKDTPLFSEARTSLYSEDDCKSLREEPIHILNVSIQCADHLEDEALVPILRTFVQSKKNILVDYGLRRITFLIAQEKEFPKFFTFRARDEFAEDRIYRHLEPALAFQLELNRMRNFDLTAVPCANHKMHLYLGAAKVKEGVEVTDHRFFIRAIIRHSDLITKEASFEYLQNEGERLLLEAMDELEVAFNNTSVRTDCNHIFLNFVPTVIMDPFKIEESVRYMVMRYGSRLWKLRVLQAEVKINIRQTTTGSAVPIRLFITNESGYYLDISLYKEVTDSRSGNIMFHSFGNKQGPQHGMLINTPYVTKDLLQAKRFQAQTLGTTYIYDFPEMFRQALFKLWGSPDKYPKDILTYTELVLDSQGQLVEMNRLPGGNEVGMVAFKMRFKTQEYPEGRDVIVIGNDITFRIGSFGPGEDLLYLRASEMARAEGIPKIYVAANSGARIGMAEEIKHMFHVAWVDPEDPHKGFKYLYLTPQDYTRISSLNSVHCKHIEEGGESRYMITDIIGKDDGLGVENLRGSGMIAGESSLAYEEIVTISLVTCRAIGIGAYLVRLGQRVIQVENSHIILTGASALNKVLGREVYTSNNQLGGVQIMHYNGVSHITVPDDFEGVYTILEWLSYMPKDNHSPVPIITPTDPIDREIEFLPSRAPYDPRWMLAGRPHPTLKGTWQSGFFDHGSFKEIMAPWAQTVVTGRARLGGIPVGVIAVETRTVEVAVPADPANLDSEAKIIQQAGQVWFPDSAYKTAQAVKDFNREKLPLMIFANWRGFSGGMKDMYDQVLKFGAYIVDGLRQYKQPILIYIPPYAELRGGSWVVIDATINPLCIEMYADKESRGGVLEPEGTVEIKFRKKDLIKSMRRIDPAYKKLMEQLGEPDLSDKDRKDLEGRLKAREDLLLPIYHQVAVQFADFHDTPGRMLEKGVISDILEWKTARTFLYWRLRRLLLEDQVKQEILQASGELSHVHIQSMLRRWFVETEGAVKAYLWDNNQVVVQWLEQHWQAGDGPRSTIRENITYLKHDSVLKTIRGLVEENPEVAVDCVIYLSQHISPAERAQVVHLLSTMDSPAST

In order of falling IC50:
1. CC(=O)N[C@@H](C)c1ccc(C2CCN(c3ccc4oc(=O)[nH]c4c3)CC2)cc1 [Example 1.68]  23900 nM
2. CC(=O)N[C@@H](C)c1ccc(C2CCN(c3ccc4c(c3)ncn4C)CC2)cc1 [Example 1.72]  23700 nM
3. CC(=O)N[C@@H](C)c1ccc(C2CCN(c3ccc(O)cc3F)CC2)cc1 [Example 1.65]  20000 nM
4. CCOc1ccc(N2CCC(c3ccc([C@H](C)NC(=O)C4CC4)cc3)CC2)c(OCC)c1 [Example 1.121]  8100 nM
5. CC(=O)N[C@@H](C)c1ccc(C2CCN(c3ccc4nc(C)n(C)c4c3)CC2)cc1 [Example 1.70]  7400 nM
6. CC(=O)N[C@@H](C)c1ccc(C2CCN(c3ccc(Oc4cncnc4)nc3)CC2)cc1 [Example 1.110]  4500 nM
7. CC(=O)N[C@@H](C)c1ccc(C2CCN(c3ccc4sccc4c3)CC2)cc1 [Example 1.69]  4000 nM
8. CCOc1ccc(N2CCC(c3ccc([C@H](C)NC(=O)N(C)C)cc3)CC2)c(OCC)c1 [Example 1.129]  3500 nM
9. CC(=O)N[C@@H](C)c1ccc(C2CCN(c3cc4c(cc3C#N)OCO4)CC2)cc1 [Example 1.73]  3400 nM
10. CC(C)Oc1cccc(N2CCC(c3ccc([C@H](C)NC(=O)C4CC4)cc3)CC2)c1 [Example 1.78]  3400 nM
11. CC(=O)N[C@@H](C)c1ccc(C2CCN(c3ccc(OCCn4ccnc4)cc3)CC2)cc1 [Example 1.109]  3100 nM
12. CC(=O)N[C@@H](C)c1ccc(C2CCN(c3ccc4[nH]cc(C)c4c3)CC2)cc1 [Example 1.75]  2200 nM
13. CC(=O)N[C@@H](C)c1ccc(C2CCN(c3ccc4[nH]c(C)cc4c3)CC2)cc1 [Example 1.76]  1900 nM
14. CC(=O)N[C@@H](C)c1ccc(C2CCN(c3ccc(O[C@@H]4CCOC4)cc3F)CC2)cc1 [Example 1.63]  1300 nM
15. C[C@H](NC(=O)C1CC1)c1ccc(C2CCN(c3ccc4c(c3)OCC(C)(C)CO4)CC2)cc1 [Example 1.87]  1200 nM
16. C[C@H](NC(=O)C1CC1)c1ccc(C2CCN(c3ccnc(Oc4cncnc4)c3)CC2)cc1 [Example 1.108]  930 nM
17. C[C@H](NC(=O)C1CC1)c1ccc(C2CCN(c3cccc(OCC4CC4)c3)CC2)cc1 [Example 1.77]  900 nM
18. CCCOc1ccc(N2CCC(c3ccc([C@H](C)NC(=O)OC)cc3)CC2)c(OC)c1 [Example 1.132]  840 nM
19. CCCOc1ccc(N2CCC(c3ccc([C@H](C)NC(=O)C4CC4)cc3)CC2)c(OC)c1 [Example 1.116]  770 nM
20. Cc1cc(OC2CC2)ccc1N1CCC(c2ccc([C@H](C)NC(=O)C3CC3)cc2)CC1 [Example 1.91]  600 nM
21. COc1cc(OC2CC2)ccc1N1CCC(c2ccc([C@H](C)NC(=O)C3CC3)cc2)CC1 [Example 1.93]  580 nM
22. CC(=O)N[C@@H](C)c1ccc(C2CCN(c3cccc(OC4CCC4)c3)CC2)cc1 [Example 1.88]  540 nM
23. C[C@H](NC(=O)N(C)C)c1ccc(C2CCN(c3cccc(OCC4CC4)c3)CC2)cc1 [Example 1.80]  530 nM
24. COCCOc1ccc(N2CCC(c3ccc([C@H](C)NC(C)=O)cc3)CC2)c(F)c1 [Example 1.97]  530 nM
25. CCOc1cnc(N2CCC(c3ccc([C@H](C)NC(C)=O)cc3)CC2)c(F)c1 [Example 1.100]  520 nM
26. C[C@H](NC(=O)N(C)C)c1ccc(C2CCN(c3ccnc(Oc4cncnc4)c3)CC2)cc1 [Example 1.107]  520 nM
27. CC(=O)N[C@@H](C)c1ccc(C2CCN(c3cccc4c3OCCO4)CC2)cc1 [Example 1.98]  470 nM
28. CC(=O)N[C@@H](C)c1ccc(C2CCN(c3ccc4nc(C)sc4c3)CC2)cc1 [Example 1.66]  420 nM
29. CCCOc1cccc(N2CCC(c3ccc([C@H](C)NC(C)=O)cc3)CC2)c1 [Example 1.89]  390 nM
30. CC(=O)N[C@@H](C)c1ccc(C2CCN(c3ccc4c(c3)OCO4)CC2)cc1 [Example 1.67]  360 nM
31. COc1ccc(N2CCC(c3ccc([C@H](C)NC(C)=O)cc3)CC2)c(F)c1 [Example 1.96]  360 nM
32. COCCCOc1ccc(N2CCC(c3ccc([C@H](C)NC(C)=O)cc3)CC2)c(F)c1 [Example 1.99]  330 nM
33. CC(C)Oc1ccc(N2CCC(c3ccc([C@H](C)NC(=O)N(C)C)cc3)CC2)cc1 [Example 1.127]  330 nM
34. CC(C)Oc1cccc(N2CCC(c3ccc([C@H](C)NC(=O)N(C)C)cc3)CC2)c1 [Example 1.81]  280 nM
35. CC(C)Oc1ccc(N2CCC(c3ccc([C@H](C)NC(=O)C4CC4)cc3)CC2)cc1 [Example 1.119]  260 nM
36. CC(C)Oc1cc(N2CCC(c3ccc([C@H](C)NC(=O)C4CC4)cc3)CC2)ccn1 [Example 1.120]  250 nM
37. CCCOc1cnc(N2CCC(c3ccc([C@H](C)NC(C)=O)cc3)CC2)c(F)c1 [Example 1.105]  240 nM
38. CCC(C)Oc1cccc(N2CCC(c3ccc([C@H](C)NC(C)=O)cc3)CC2)c1 (stereo partly drawn) [Example 1.90]  230 nM
39. CC(C)COc1ccc(N2CCC(c3ccc([C@H](C)NC(=O)N(C)C)cc3)CC2)nc1 [Example 1.126]  230 nM
40. CCCOc1ccc(N2CCC(c3ccc([C@H](C)NC(=O)N(C)C)cc3)CC2)c(F)c1 [Example 1.86]  210 nM
41. CC(=O)N[C@@H](C)c1ccc(C2CCN(c3ccc(OC4CC4)cc3OC3CC3)CC2)cc1 [Example 1.94]  210 nM
42. C[C@H](NC(=O)N(C)C)c1ccc(C2CCN(c3ccc(OC4CC4)cc3)CC2)cc1 [Example 1.112]  210 nM
43. CC(=O)N[C@@H](C)c1ccc(C2CCN(c3ncc(OCC4CC4)cc3F)CC2)cc1 [Example 1.104]  200 nM
44. CCCOc1ccc(N2CCC(c3ccc([C@H](C)NC(=O)OC)cc3)CC2)c(C#N)c1 [Example 1.131]  190 nM
45. C[C@H](NC(=O)C1CC1)c1ccc(C2CCN(c3ccc(OCC4CC4)cc3F)CC2)cc1 [Example 1.79]  180 nM
46. C[C@H](NC(=O)N(C)C)c1ccc(C2CCN(c3ccc(OCC4CC4)cc3F)CC2)cc1 [Example 1.84]  180 nM
47. CCCOc1ccc(N2CCC(c3ccc([C@H](C)NC(=O)N(C)C)cc3)CC2)c(OC)c1 [Example 1.124]  180 nM
48. COc1cc(OC2CC2)ccc1N1CCC(c2ccc([C@H](C)NC(=O)N(C)C)cc2)CC1 [Example 1.106]  170 nM
49. CCOc1ccc(N2CCC(c3ccc([C@H](C)NC(=O)C4CC4)cc3)CC2)c(F)c1 [Example 1.82]  160 nM
50. CCOc1ccc(N2CCC(c3ccc([C@H](C)NC(=O)N(C)C)cc3)CC2)c(F)c1 [Example 1.85]  140 nM
51. COC(=O)N[C@@H](C)c1ccc(C2CCN(c3ccc(OC4CC4)cc3)CC2)cc1 [Example 1.113]  140 nM
52. CC(C)COc1ccc(N2CCC(c3ccc([C@H](C)NC(=O)C4CC4)cc3)CC2)cc1 [Example 1.114]  130 nM
53. CC(=O)N[C@@H](C)c1ccc(C2CCN(c3ccc(OC4CC4)cc3C)CC2)cc1 [Example 1.92]  120 nM
54. CC(C)COc1ccc(N2CCC(c3ccc([C@H](C)NC(=O)C4CC4)cc3)CC2)nc1 [Example 1.118]  120 nM
55. CC(C)COc1ccc(N2CCC(c3ccc([C@H](C)NC(=O)N(C)C)cc3)CC2)cc1 [Example 1.122]  120 nM
56. CC(C)Oc1cc(N2CCC(c3ccc([C@H](C)NC(=O)N(C)C)cc3)CC2)ccn1 [Example 1.128]  120 nM
57. CCCOc1ccc(N2CCC(c3ccc([C@H](C)NC(=O)C4CC4)cc3)CC2)c(C#N)c1 [Example 1.115]  110 nM
58. CC(=O)N[C@@H](C)c1ccc(C2CCN(c3ccc(OC(C)C)cc3F)CC2)cc1 [Example 1.74]  100 nM
59. CCCOc1ccc(N2CCC(c3ccc([C@H](C)NC(=O)C4CC4)cc3)CC2)c(F)c1 [Example 1.83]  100 nM
60. C[C@H](NC(=O)N(C)C)c1ccc(C2CCN(c3ccc(OC4CCCC4)cc3)CC2)cc1 [Example 1.125]  100 nM
61. CC(=O)N[C@@H](C)c1ccc(C2CCN(c3ccc4oc(-c5ccccc5)nc4c3)CC2)cc1 [Example 1.71]  80 nM
62. CCC(C)Oc1ccc(N2CCC(c3ccc([C@H](C)NC(=O)OC)cc3)CC2)cc1 (stereo partly drawn) [Example 1.130]  80 nM
63. CCCOc1ccc(N2CCC(c3ccc([C@H](C)NC(C)=O)cc3)CC2)c(F)c1 [Example 1.64]  70 nM
64. CCCOc1ccc(N2CCC(c3ccc([C@H](C)NC(=O)N(C)C)cc3)CC2)c(C#N)c1 [Example 1.123]  70 nM
65. C[C@H](NC(=O)C1CC1)c1ccc(C2CCN(c3ccc(OC4CCCC4)cc3)CC2)cc1 [Example 1.117]  60 nM
66. CC(=O)N[C@@H](C)c1ccc(C2CCN(c3ccc(OCCC4CC4)cc3F)CC2)cc1 [Example 1.101]  50 nM
